{"source": "patent US10828380B2", "about": "“Conjugate of polysarcosine and NIR contrast agent for photoacoustic imaging” (CANON KABUSHIKI KAISHA, priority 2015, dated 2020)", "origin": "cited, not measured here", "data": [{"smiles": "CC1(C)C(/C=C/C=C/C=C/C=C2/N(CCCCS(=O)(=O)[O-])c3ccc4ccccc4c3C2(C)C)=[N+](CCCCS(=O)(=O)[O-])c2ccc3ccccc3c21.[Na+]", "note": "[ICG, indocyanine green]", "values": [{"measurement": "half-life in blood", "value": "about several minutes"}]}]}
